According to patent publication US20230303553A1, “CDK6/DYRK2 DUAL-TARGET INHIBITOR, AND PREPARATION METHOD THEREFOR AND USE THEREOF” (JIANGSU TASLY DIYI PHARMACEUTICAL CO., LTD., priority 2021, published 2023):
Read-outs that look alike come from different tables or passages of the source.

Assays:
[1] = tested on: prostate cancer (PC-3) cell line; assay: MTT cancer cell proliferation, PC-3; type: cell-based; details: Homo sapiens, PC-3, 72 h, read-out: IC50 proliferation PC-3
lung cancer (A-549) = assay: MTT cancer cell proliferation, A-549; type: cell-based; details: Homo sapiens, A549, 72 h, read-out: IC50 proliferation A-549
[2] = tested on: xenografts of human prostate cancer Du-145; assay: Human prostate cancer Du-145 xenografts in nude mice; type: in vivo, BALB/c nude mice; details: for inhibition on tumor growth, in words: FIG. 3
[3] = tested on: colon cancer (HT-29) cell line; assay: MTT cancer cell proliferation, HT-29; type: cell-based; details: Homo sapiens, HT-29, 72 h, read-out: IC50 proliferation HT-29
CDK6 kinase = CDK6 kinase (Homo sapiens (Human), UniProt Q00534); assay: CDK6 kinase activity, Lance Ultra TR-FRET; type: biochemical
[4] = tested on: prostate cancer (Du-145) cell line; assay: MTT cancer cell proliferation, Du-145; type: cell-based; details: Homo sapiens, DU-145, 72 h, read-out: IC50 proliferation Du-145
[5] = tested on: gastric cancer (MGC-803) cell line; assay: MTT cancer cell proliferation, MGC-803; type: cell-based; details: Homo sapiens, MGC-803, 72 h, read-out: IC50 proliferation MGC-803
[6] = tested on: pancreatic cancer (Panc-1) cell line; assay: MTT cancer cell proliferation, Panc-1; type: cell-based; details: Homo sapiens, PANC-1, 72 h, read-out: IC50 proliferation Panc-1
[7] = tested on: human breast cancer (MCF-7); assay: MTT cancer cell proliferation, MCF-7; type: cell-based; details: MCF7, 72 h, read-out: IC50 proliferation MCF-7
[8] = tested on: multiple myeloma (RPMI8226) cell line; assay: MTT cancer cell proliferation, RPMI8226; type: cell-based; details: Homo sapiens, RPMI-8226, 72 h, read-out: IC50 proliferation RPMI8226
[9] = tested on: xenografts of human prostate cancer PC3; assay: Human prostate cancer PC-3 xenografts in nude mice; type: in vivo, BALB/c nude mice; details: for relative tumor proliferation rate T/C(%) / tumor growth inhibition rate: PC-3 xenograft, 28 days
DYRK2 kinase = DYRK2 kinase (Homo sapiens (Human), UniProt Q92630); assay: DYRK2 kinase activity, 33P-ATP / Woodtide substrate; type: biochemical
[10] = tested on: leukemia (K562) cell line; assay: MTT cancer cell proliferation, K562; type: cell-based; details: Homo sapiens, K562, 72 h, read-out: IC50 proliferation K-562
[11] = tested on: liver cancer (HepG2) cell line; assay: MTT cancer cell proliferation, HepG2; type: cell-based; details: Homo sapiens, HepG2, 72 h, read-out: IC50 proliferation HepG2
[12] = tested on: triple negative breast cancer (MDA-MB-231) cell line; assay: MTT cancer cell proliferation, MDA-MB-231; type: cell-based; details: Homo sapiens, MDA-MB-231, 72 h, read-out: IC50 proliferation MDA-MB-231
[13] = tested on: ovarian cancer (SK-OV-3) cell line; assay: MTT cancer cell proliferation, SK-OV-3; type: cell-based; details: Homo sapiens, SK-OV-3, 72 h, read-out: IC50 proliferation SK-OV-3
[14] = Pharmacokinetics in SD rats; type: in vivo; details: for half-life: read-out: t ½ (converted)
[15] = tested on: xenografts of human lung cancer A549; assay: Human lung cancer A549 xenografts in nude mice; type: in vivo, BALB/c nude mice; details: for relative tumor proliferation rate T/C(%) / tumor growth inhibition rate: A549 xenograft, 21 days
[16] = tested on: non-small cell lung cancer (NCI-H1299) cell line; assay: MTT cancer cell proliferation, NCI-H1299; type: cell-based; details: Homo sapiens, NCI-H1299, 72 h, read-out: IC50 proliferation NCI-H1299
[17] = tested on: human glioma (U251) cell line; assay: MTT cancer cell proliferation, U251; type: cell-based; details: U-251, 72 h, read-out: IC50 proliferation U251
ICR mice = assay: Acute toxicity in mice, single gavage; type: in vivo
[18] = Du-145 xenograft, 200 mg/kg intragastric once every day
[19] = 100 mg/kg intragastric once every day
[20] = 200 mg/kg intragastric once every day
[21] = rat, plasma, iv tail vein 1 mg/kg
[22] = rat, plasma, po gavage 10 mg/kg
[23] = 150 mg/kg intragastric once every 2 days
[24] = 300 mg/kg intragastric once every 2 days

Chain of DYRK2 kinase (Q92630 whole entry): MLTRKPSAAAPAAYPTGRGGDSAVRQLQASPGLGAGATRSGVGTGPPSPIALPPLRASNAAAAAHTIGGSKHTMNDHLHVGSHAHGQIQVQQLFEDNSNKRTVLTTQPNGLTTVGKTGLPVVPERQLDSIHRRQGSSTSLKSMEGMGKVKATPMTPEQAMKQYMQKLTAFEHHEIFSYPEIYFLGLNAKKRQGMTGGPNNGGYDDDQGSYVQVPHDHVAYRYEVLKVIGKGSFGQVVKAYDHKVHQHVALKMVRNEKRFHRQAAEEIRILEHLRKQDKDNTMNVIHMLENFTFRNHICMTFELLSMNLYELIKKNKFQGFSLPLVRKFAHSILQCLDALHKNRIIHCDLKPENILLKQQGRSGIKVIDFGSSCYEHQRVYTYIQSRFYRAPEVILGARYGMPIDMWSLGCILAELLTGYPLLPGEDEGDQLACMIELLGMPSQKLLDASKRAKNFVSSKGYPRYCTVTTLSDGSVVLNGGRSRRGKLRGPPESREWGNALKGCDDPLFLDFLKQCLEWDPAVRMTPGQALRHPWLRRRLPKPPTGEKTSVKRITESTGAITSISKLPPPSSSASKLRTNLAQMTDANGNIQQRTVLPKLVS
Chain of CDK6 kinase (Q00534 whole entry): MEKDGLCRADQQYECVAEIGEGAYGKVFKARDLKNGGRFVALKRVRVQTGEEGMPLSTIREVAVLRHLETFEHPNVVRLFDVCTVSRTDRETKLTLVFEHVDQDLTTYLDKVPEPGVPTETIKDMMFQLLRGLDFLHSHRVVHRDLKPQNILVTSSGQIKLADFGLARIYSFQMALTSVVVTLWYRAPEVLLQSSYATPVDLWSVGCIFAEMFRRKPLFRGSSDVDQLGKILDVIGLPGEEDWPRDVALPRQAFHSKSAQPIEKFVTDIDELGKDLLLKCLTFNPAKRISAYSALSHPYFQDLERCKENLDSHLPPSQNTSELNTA
Chain of CDK6 kinase (P24385 whole entry partner): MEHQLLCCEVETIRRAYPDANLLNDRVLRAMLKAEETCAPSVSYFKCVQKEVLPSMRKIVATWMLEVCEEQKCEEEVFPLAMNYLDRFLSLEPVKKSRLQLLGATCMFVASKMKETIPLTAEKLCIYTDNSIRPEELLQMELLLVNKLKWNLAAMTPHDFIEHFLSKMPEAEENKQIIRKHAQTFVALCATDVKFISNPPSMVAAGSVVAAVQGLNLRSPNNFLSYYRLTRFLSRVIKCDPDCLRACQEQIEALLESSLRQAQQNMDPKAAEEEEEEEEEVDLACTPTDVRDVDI

For `CCN1CCN(C(=O)c2ccc(Nc3ncc(F)c(-c4ccc5nc(N(C)C)sc5c4)n3)nc2)CC1` [Example 31, (6-((4-(2-(dimethylamino)benzothiazole-6-yl)-5-fluoropyrimidine-2-yl)amino)pyridine-3-yl)(4-ethylpiperazine-1-yl)ketone], the IC50 [1] was 1.06 µM, the IC50 (lung cancer (A-549)) was 1.64 µM and the “effect on growth of xenografts, in words” value ([2]; Du-145 xenograft in nude mice) was “significant inhibitory effect”. For the same molecule, the “inhibition on tumor growth, in words” value ([2]; Du-145 xenograft, 100 mg/kg intragastric once every day, groups compared) was “better inhibition on tumor growth than the positive drug Palbociclib”, the “day on which tumor volume started to be reduced” value [2, 18] was 31 days and the “inhibition on tumor growth, in words” value [2, 18] was “significantly inhibited tumor growth”. For the same molecule, the IC50 [3] was 1.87 µM, the IC50 (CDK6 kinase) was 0.018 µM and the IC50 [4] was 3.3 µM. For the same molecule, the IC50 [5] was 2.02 µM, the IC50 [6] was 1.93 µM and the IC50 [7] was 1.89 µM. For the same molecule, the IC50 [8] was 1.08 µM, the “effect on growth of xenografts, in words” value ([9]; PC-3 xenograft in nude mice) was “significant inhibitory effect” and the “relative tumor proliferation rate T/C(%)” value [9, 19] was 35.7%. The “tumor growth inhibition rate” value [9, 19] was 64.3%, the “relative tumor proliferation rate T/C(%)” value [9, 20] was 23.4% and the “tumor growth inhibition rate” value [9, 20] was 76.6%. The IC50 (DYRK2 kinase) was 0.009 µM, the IC50 [10] was 0.917 µM and the IC50 [11] was 1.54 µM. For the same molecule, the IC50 [12] was 1.75 µM, the IC50 [13] was 1.78 µM and the “Pharmacokinetic assessment in words” value [14] was “good metabolism in rats, good absorption and exposure and high bioavailability”. For the same molecule, the “F (bioavailability)” value ([14]; po 10 mg/kg vs iv 1 mg/kg) was 55.78%, the Cl ([14]; po gavage 10 mg/kg) was 19.97 mL/min/kg and the AUC(0-inf) [14, 21] was 1500 ng·h/mL. For the same molecule, the Cmax [14, 21] was 974 ng/mL, the Tmax [14, 21] was 0.033 h and the clearance [14, 21] was 11.1 mL/min/kg. The half-life [14, 21] was 2.99 h, the AUC(0-inf) [14, 22] was 8380 ng·h/mL and the Cmax [14, 22] was 674 ng/mL. For the same molecule, the Tmax [14, 22] was 4 h, the half-life [14, 22] was 5.08 h and the “effect on growth of xenografts, in words” value ([15]; A549 xenograft in nude mice) was “significant inhibitory effect”. The “relative tumor proliferation rate T/C(%)” value [15, 23] was 44.8%, the “tumor growth inhibition rate” value [15, 23] was 55.2% and the “relative tumor proliferation rate T/C(%)” value [15, 24] was 35.9%. For the same molecule, the “tumor growth inhibition rate” value [15, 24] was 64.1%, the IC50 [16] was 2.13 µM and the IC50 [17] was 2.15 µM. The “Organ toxicity by HE staining” value (ICR mice; acute toxicity assay, FIG. 2) was “no significant toxicity to heart, liver, spleen, lung, kidney and other major organs”, the “Toxicity symptoms / abnormality” value (ICR mice; single gavage 2500, 5000 or 10000 mg/kg) was “no abnormality was found within 12 h after administration in all groups” and the Death of mice (ICR mice; single gavage 2500, 5000 or 10000 mg/kg, 14 days observation) was “No animals died within 24h of dosing and no animals died after day 14 of dosing”.
